Assay: Solubilities of pHMBA and Impurities in Water
Type: physicochemical
Procedure: Since solubilities of p-hydroxymethylbenzoic acid and impurities in solvents depend upon the temperature at which the reaction takes place, increased product production is obtained by increased temperature and pressure.
Solubilities of pHMBA and Impurities in Water
Solubility (g/100 ml H2 O)

Solubility at 20° C. | Solubility at 100° C. | Structure (SMILES)
< 0.005 g/100 ml H2 O | ~ 0.25 g/100 ml H2 O | O=Cc1ccc(C(=O)O)cc1 [4-CBA, 4-carboxybenzaldehyde]
0.02 g/100 ml H2 O | 0.22 g/100 ml H2 O | Cc1ccc(C(=O)O)cc1 [p-Toluic Acid, p-toluic acid]
~ 0.5 g/100 ml H2 O | ~ 10.0 g/100 ml H2 O | O=C(O)c1ccc(CO)cc1 [pHMBA, p-hydroxymethylbenzoic acid]

Structure (SMILES) | Solubility at 20° C. | Solubility at 100° C.
O=C(O)c1ccc(C(=O)O)cc1 [Terephthalic Acid, terephthalic acid] | < 0.005 g/100 ml H2 O | 0.03 g/100 ml H2 O
